Data on 44 molecules can be found in patent publication US8440666B2, “Pyridazinone compounds and P2X7 receptor inhibitors” (Nissan Chemical Industries, Ltd., priority 2007, dated 2013).

As usually defined, the IC50 is the concentration needed to halve the response being measured.

The target of the assay is T1, Human P2X7 (hP2X7) receptor (Homo sapiens, UniProt Q99572).
T1 construct: myc-His (from the pcDNA3.1/myc-HisA vector); expressed in transfected cells
T1 sequence (Q99572 1-595): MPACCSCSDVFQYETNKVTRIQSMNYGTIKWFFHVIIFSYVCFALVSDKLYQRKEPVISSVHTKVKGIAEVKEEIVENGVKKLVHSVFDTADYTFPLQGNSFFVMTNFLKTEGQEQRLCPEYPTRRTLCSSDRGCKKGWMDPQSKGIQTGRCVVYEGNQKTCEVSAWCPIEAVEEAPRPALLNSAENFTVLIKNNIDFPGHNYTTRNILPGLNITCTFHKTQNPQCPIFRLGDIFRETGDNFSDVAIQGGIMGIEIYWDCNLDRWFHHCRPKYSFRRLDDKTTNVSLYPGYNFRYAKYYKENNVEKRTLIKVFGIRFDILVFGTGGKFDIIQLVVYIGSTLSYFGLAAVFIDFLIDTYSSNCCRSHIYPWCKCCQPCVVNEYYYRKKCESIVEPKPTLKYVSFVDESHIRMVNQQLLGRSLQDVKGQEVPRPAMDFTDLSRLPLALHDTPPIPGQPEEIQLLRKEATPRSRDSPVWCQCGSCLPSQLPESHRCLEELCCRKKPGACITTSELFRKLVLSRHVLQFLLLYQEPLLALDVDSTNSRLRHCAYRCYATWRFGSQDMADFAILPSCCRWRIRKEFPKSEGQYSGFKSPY
In words: Dye assay: BzATP-induced Yo-Pro-1 uptake in HEK293 cells stably expressing hP2X7. It counts as cell-based. The note with it: BzATP (0.1 mM)-induced Yo-Pro-1 uptake, compounds 30 min pre-treatment, 90 min incubation. From the text: Human P2X7 (hP2×7) was cloned from a normal human brain total RNA library by reverse transcription (using SuperScript II (Invitrogen)) and PCR (using KOD-plus-(TOYOBO)). PCR primers were designed according to hP2X7 sequence registered in GENBANK with a putative amino acid sequence consisting of 595 amino acid residues. The PCR fragments were inserted into pcDNA3.1/myc-HisA vector (Invitrogen) and sequenced for confirmation.
HEK293 cells were transfected with hP2×7/pcDNA3.1/myc-HisA by lipofection, and 1 day later, the cells were treated with 1 mg/mL G418, and resistant cells were selected by appropriately dilution. The resistant cells were cloned by reseeding at a low density.
P2X7 receptor antagonists were screened by a dye uptake assay using HEK293 cells stably expressing hP2×7. Cells were plated on a type I collagen-coated black/clear bottom 96-well plate at 20000 cells/well and a day later, treated with varying concentrations of various test compounds for 30 minutes, then treated with a dye (Yo-Pro-1) (final concentration 2 μM) and BzATP (final concentration 0.1 mM) and incubated for 90 minutes. Then, the fluorescence (indicating the BzATP-induced Yo-Pro-1 uptake mediated by the P2X7 receptor) was measured with a microplate reader (excitation wavelength: 485 nm, emission wavelength: 535 nm). The % inhibition rates were calculated and plotted against the logarithms of the concentrations to determine IC50.
Take `CC(C)NC(=O)Cn1ncc(N[C@@H]2C[C@@H]3C[C@H]([C@H]2C)C3(C)C)c(Br)c1=O` [compound 2]: the IC50 worked out at 51 nM.
The figure for `C[C@@H]1[C@H]2C[C@@H](C[C@H]1Nc1cnn(CC(=O)NCCc3ccccc3)c(=O)c1Br)C2(C)C` [compound 6] is 86 nM; for `C[C@@H]1[C@H]2C[C@@H](C[C@H]1Nc1cnn(CC(=O)NCc3cccnc3)c(=O)c1Br)C2(C)C` [compound 12] it is 20 nM.
Take `C[C@@H]1[C@H]2C[C@@H](C[C@H]1Nc1cnn(CC(=O)NCc3cnccn3)c(=O)c1Br)C2(C)C` [compound 14]: the IC50 was 21 nM.
`C[C@@H]1[C@H]2C[C@@H](C[C@H]1Nc1cnn(CC(=O)NC3CC3)c(=O)c1Br)C2(C)C` [compound 19]: the IC50 is 38 nM.
The figure for `CC(NC(=O)Cn1ncc(N[C@@H]2C[C@@H]3C[C@H]([C@H]2C)C3(C)C)c(Br)c1=O)c1ccccc1` (some centres unmarked) [compound 23] is 34 nM.
The figure for `C[C@@H]1[C@H]2C[C@@H](C[C@H]1NC(=O)Cn1ncc(N[C@@H]3C[C@@H]4C[C@H]([C@H]3C)C4(C)C)c(Br)c1=O)C2(C)C` [compound 32] is 63 nM; for `O=C(Cn1ncc(NC23CC4CC(CC(C4)C2)C3)c(Br)c1=O)NCc1ccncc1` [compound 51] it is 16 nM; for `CC1(C)[C@H]2CC[C@@H](CNc3cnn(CC(=O)NCc4ccncc4)c(=O)c3Br)[C@@H]1C2` [compound 54] it is 26 nM.
Regarding `O=C(Cn1ncc(NCC23CC4CC(CC(C4)C2)C3)c(Br)c1=O)NCc1ccncc1` [compound 60], the IC50 worked out at 71 nM.
In the case of `CC1(C)C2CCC1(C)C(Nc1cnn(CC(=O)NCc3ccncc3)c(=O)c1Br)C2` (centres unmarked) [compound 61], the IC50 stood at 41 nM.
In the case of `O=C(Cn1ncc(NC2C3CC4CC(C3)CC2C4)c(Br)c1=O)NCc1ccncc1` (centres unmarked) [compound 74] it was 22 nM; in that of `C[C@@H]1[C@H]2C[C@@H](C[C@H]1Nc1cnn(CC(=O)Nc3cccc([N+](=O)[O-])c3)c(=O)c1Br)C2(C)C` [compound 79], 46 nM.
In the case of `C[C@@H]1[C@H]2C[C@@H](C[C@H]1Nc1cnn(Cc3ccccn3)c(=O)c1Br)C2(C)C` [compound 87] it was 62 nM; in that of `C[C@@H]1[C@H]2C[C@@H](C[C@H]1Nc1cnn(CC(=O)Nc3ccc4c(c3)C(=O)N(C)C4=O)c(=O)c1Br)C2(C)C` [compound 88], 44 nM.
In the case of `COc1cc(OC)nc(Cn2ncc(N[C@@H]3C[C@@H]4C[C@H]([C@H]3C)C4(C)C)c(Br)c2=O)n1` [compound 89], the 50% inhibitory concentration (IC50) is 35 nM.
In the case of `C[C@@H]1[C@H]2C[C@@H](C[C@H]1Nc1cnn(CC(=O)Nc3ccc(N(C)C)cc3)c(=O)c1Br)C2(C)C` [compound 94] it was 64 nM; in that of `C[C@@H]1[C@H]2C[C@@H](C[C@H]1Nc1cnn(CC(=O)NCc3ccnc(Cl)c3)c(=O)c1Br)C2(C)C` [compound 99], 39 nM.
With `COc1cc(CNC(=O)Cn2ncc(N[C@@H]3C[C@@H]4C[C@H]([C@H]3C)C4(C)C)c(Br)c2=O)on1` [compound 100], the concentration for half-maximal inhibition (IC50) is 54 nM.
Consider `C[C@@H]1[C@H]2C[C@@H](C[C@H]1Nc1cnn(CC(=O)NCc3ccncn3)c(=O)c1Br)C2(C)C` [compound 103], for which the IC50 turned out to be 14 nM.
On to `COc1cc(CNC(=O)Cn2ncc(N[C@@H]3C[C@@H]4C[C@H]([C@H]3C)C4(C)C)c(Br)c2=O)ccn1` [compound 104], for which the concentration for half-maximal inhibition (IC50) is 57 nM.
In the case of `C[C@@H]1[C@H]2C[C@@H](C[C@H]1Nc1cnn(CC(=O)NCc3cscn3)c(=O)c1Br)C2(C)C` [compound 106] it was 44 nM; in that of `C[C@@H]1[C@H]2C[C@@H](C[C@H]1Nc1cnn(CC(=O)NCc3ccno3)c(=O)c1Br)C2(C)C` [compound 127], 19 nM; in that of `CC(C)NC(=O)Cn1ncc(N[C@@H]2C[C@@H]3C[C@H]([C@H]2C)C3(C)C)c(Cl)c1=O` [compound 134], 20 nM.
As for `C[C@@H]1[C@H]2C[C@@H](C[C@H]1Nc1cnn(CC(=O)NCc3ccncc3)c(=O)c1Cl)C2(C)C` [compound 135], the IC50 stood at 4.2 nM.
In the case of `C[C@@H]1[C@H]2C[C@@H](C[C@H]1Nc1cnn(CC(=O)NCc3ccnc4ccccc34)c(=O)c1Br)C2(C)C` [compound 167] it was 22 nM.
The figure for `C[C@@H]1[C@H]2C[C@@H](C[C@H]1Nc1cnn(CC(=O)NC(c3ccccc3)c3ccncc3)c(=O)c1Br)C2(C)C` (some centres unmarked) [compound 169] is 300 nM; for `Cc1cnccc1CNC(=O)Cn1ncc(N[C@@H]2C[C@@H]3C[C@H]([C@H]2C)C3(C)C)c(Br)c1=O` [compound 170] it is 3.1 nM.
The figure for `C[C@@H]1[C@H]2C[C@@H](C[C@H]1Nc1cnn(CC(=O)N/C(=N/O)c3ccncc3)c(=O)c1Br)C2(C)C` [compound 172] is 310 nM; for `CC(NC(=O)Cn1ncc(N[C@@H]2C[C@@H]3C[C@H]([C@H]2C)C3(C)C)c(Br)c1=O)c1ccc(F)cc1` (some centres unmarked) [compound 178] it is 30 nM.
As to `C[C@@H]1[C@H]2C[C@@H](C[C@H]1Nc1cnn(CC(=O)NCc3ccc(C(F)(F)F)c(F)c3)c(=O)c1Br)C2(C)C` [compound 183], the IC50 worked out at 230 nM.
The figure for `C[C@@H]1[C@H]2C[C@@H](C[C@H]1Nc1cnn(CC(=O)NC(C#N)c3ccccc3)c(=O)c1Br)C2(C)C` (some centres unmarked) [compound 190] is 54 nM; for `CC(NC(=O)Cn1ncc(N[C@@H]2C[C@@H]3C[C@H]([C@H]2C)C3(C)C)c(Br)c1=O)c1ccc(Cl)cc1` (some centres unmarked) [compound 197] it is 32 nM.
In the case of `C[C@@H]1[C@H]2C[C@@H](C[C@H]1Nc1cnn(CC(=O)NC[C@H]3CCCN3C(=O)OC(C)(C)C)c(=O)c1Br)C2(C)C` [compound 201], the IC50 was 90 nM.
For `CONC(=O)Cn1ncc(N[C@@H]2C[C@@H]3C[C@H]([C@H]2C)C3(C)C)c(Br)c1=O` [compound 202], the IC50 stood at 140 nM.
On to `C[C@@H]1[C@H]2C[C@@H](C[C@H]1Nc1cnn(CC(=O)NCc3ccc(O)cc3)c(=O)c1Br)C2(C)C` [compound 205], for which the half-inhibitory concentration (IC50) was 58 nM.
With `C[C@@H]1[C@H]2C[C@@H](C[C@H]1Nc1cnn(CC(=O)NCC3CCCCC3)c(=O)c1Br)C2(C)C` [compound 208], the IC50 is 84 nM.
In the case of `CC(C)CNC(=O)Cn1ncc(N[C@@H]2C[C@@H]3C[C@H]([C@H]2C)C3(C)C)c(Br)c1=O` [compound 209] it was 42 nM; in that of `Cc1noc(C)c1CNC(=O)Cn1ncc(N[C@@H]2C[C@@H]3C[C@H]([C@H]2C)C3(C)C)c(Br)c1=O` [compound 212], 30 nM; in that of `C[C@@H]1[C@H]2C[C@@H](C[C@H]1Nc1cnn(CC(=O)NCc3ccnc(C#N)c3)c(=O)c1Br)C2(C)C` [compound 219], 31 nM.
Consider `CC(NC(=O)Cn1ncc(NC2CC3CC(C2C)C3(C)C)c(Br)c1=O)c1ccnnc1` (centres unmarked) [compound 220], for which the half-maximal inhibitory concentration (IC50) is 4.2 nM.
The figure for `C[C@@H]1[C@H]2C[C@@H](C[C@H]1Nc1cnn(CC(=O)NCc3ccnc(F)c3)c(=O)c1Br)C2(C)C` [compound 222] is 4.3 nM; for `C[C@@H]1[C@H]2C[C@@H](C[C@H]1Nc1cnn(CC(=O)Nc3nc(-c4ccncc4)cs3)c(=O)c1Cl)C2(C)C` [compound 226] it is 84 nM; for `C[C@@H]1[C@H]2C[C@@H](C[C@H]1Nc1cnn(CC(=O)Nc3cccnc3)c(=O)c1Cl)C2(C)C` [compound 227] it is 38 nM.
